Usually Ki stands for a dissociation constant, usually derived from enzyme kinetics or from competition with a known ligand. Low readings indicate tighter binding, high ones weaker binding.

Structures can show the parent of a compound that is named as a salt. A value given as a limit tells only on which side of the number the result lay.

This is an account of results in patent US20090069370A1, “AZACYCLYLISOQUINOLINONE AND ISOINDOLINONE DERIVATIVES AS HISTAMINE-3 ANTAGONISTS” (Wyeth, priority 2007, published 2009).

T1 sequence (Q9Y5N1 whole entry): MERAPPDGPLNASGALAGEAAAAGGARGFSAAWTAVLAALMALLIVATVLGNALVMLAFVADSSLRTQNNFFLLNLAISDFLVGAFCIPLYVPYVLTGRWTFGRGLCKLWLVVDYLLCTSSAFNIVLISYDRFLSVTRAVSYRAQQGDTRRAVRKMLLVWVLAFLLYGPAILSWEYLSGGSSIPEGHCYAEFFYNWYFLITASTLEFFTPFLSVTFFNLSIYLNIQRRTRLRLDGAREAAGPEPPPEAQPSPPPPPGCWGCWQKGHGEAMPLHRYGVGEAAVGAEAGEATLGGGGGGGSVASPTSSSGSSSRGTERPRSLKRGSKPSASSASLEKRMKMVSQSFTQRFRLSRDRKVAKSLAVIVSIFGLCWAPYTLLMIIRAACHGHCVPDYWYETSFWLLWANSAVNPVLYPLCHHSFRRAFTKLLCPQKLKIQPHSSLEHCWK

The assay has as its target T1, Human Histamine H3 Receptor (Homo sapiens, UniProt Q9Y5N1).
T1 construct: expressed in transfected cells; host or cells: HEK293T cells, stably transfected; membrane preparation
As to the kind of experiment: Methyl histamine binding in human histamine H3 receptor cell line. To be noted: membranes of stably transfected HEK293T cells; radioligand 1 nM; Ki from IC50 by Cheng-Prusoff. The protocol:
Evaluation of Methyl Histamine Binding in Human Histamine H3 Receptor Cell Line
The affinity of test compounds for the histamine 3 (H3) receptor is evaluated in the following manner. Stably transfected HEK293T cells are grown in DMEM containing 10% heat inactivated FBS and G-418 (500 ug/ml). Cells are scraped from the plate, transferred to centrifuge tubes, washed one time in PBS by centrifugation in a Sorvall RT7 Plus centrifuge (2000 rpm 10 minutes, 4° C.). The resulting pellets are stored at −80° C. until ready for use. Cells are re-suspended in buffer (50 mM Tris pH=7.5) and placed in a Dounce homogenizer, douncing ten times to homogenize cells. The homogenate is spun down by centrifugation (Sorvall RT7 Plus, 1800 rpm 10 minutes, 4° C.). The supernatant is placed in a Corex tube and spun down by centrifugation (Sorvall RC 5c Plus, 17,000 rpm 20 minutes, 4° C.). The pellet is resuspended in buffer (50 mM Tris, pH 7.5). Protein concentration (ug/ul) is determined using the Micro-BCA Protein Determination. The binding assay is set up in a 96 well microtiter plate in a total volume of 250 uL. Non-specific binding is determined in the presence of 10 uM clobenpropit. The final radioligand concentration is 1 nM. The test compound is serially diluted using the Beckman Biomek2000 to a final approximate range of 100 uM to 100 pM. Membranes are suspended in buffer, homogenized in 2 bursts of ten seconds using a Vitris mechanical homogenizer set at power setting 5. Ten μg of membranes are added to each well. Following a one hour incubation at 30° C., the reaction is terminated by the addition of ice cold buffer and rapid filtration with a Packard Filtermate Harvester through a GF/B filter pre-soaked with 1% PEI for one hour. The plate is dried for one hour at 37° C. and 60 μL Microscint Scintillant is added to each well. The CPM per well is measured on a Packard Top Count NXT. Ki values are determined in nM. The Ki is calculated from the IC50 (i.e. the concentration of competing ligand which displaces 50% of the specific binding of the radioligand). CPM values are expressed as % specific binding and plotted vs compound concentration. A curve is fitted using a four-parameter logistic fit and the IC50 value is determined. The Ki is calculated from this using the Cheng-Prusoff equation: […]=IC50/1+(L/Kd) where L=concentration of free radioligand used in the assay, and Kd is the dissociation constant of the radioligand for the receptor. L is determined for each experiment by counting an aliquot of the diluted radioligand (corresponding to that added to each well) and the Kd has previously been determined under identical conditions for this cell line/radioligand.
For the compound `N#Cc1ccc(-c2ccc3c(c2)CN(C2CCN(CC4CCCC4)CC2)C3=O)cc1` [Example 27, 4-{2-[1-(Cyclopentylmethyl)piperidin-4-yl]-1-oxo-2,3-dihydro-1H-isoindol-5-yl}benzonitrile], the Ki lay within 25.1 to 50 nM.

In turn, `O=C(c1ccc(-c2ccc3c(c2)CCN([C@@H]2CCCN(C4CCC4)C2)C3=O)cc1)N1CCCC1` [Example 70, 2-[(3R)-1-cyclobutylpiperidin-3-yl]-6-[4-(pyrrolidin-1-ylcarbonyl)phenyl]-3,4-dihydroisoquinolin-1(2H)-one] yielded a Ki of 10.1 to 25 nM.

`O=C(O)c1ccc(Oc2ccc3c(c2)CCN([C@@H]2CCN(C4CCC4)C2)C3=O)cc1` [Example 32, (R)-4-(2-(1-cyclobutylpyrrolidin-3-yl)-1-oxo-1,2,3,4-tetrahydroiso-quinolin-6-yloxy)benzoic acid]: the Ki was above 100 nM.

`O=C(NC1CCC1)c1ccc(COc2ccc3c(c2)CCN(C2CCN(C4CCC4)CC2)C3=O)cc1` [Example 19, N-Cyclobutyl-4-({[2-(1-cyclobutylpiperidin-4-yl)-1-oxo-1,2,3,4-tetrahydroisoquinolin-6-yl]oxy}methyl)benzamide] showed a Ki of at most 10 nM.

For `O=C(c1ccc(-c2ccc3c(c2)CCN([C@@H]2CCN(C4CCC4)C2)C3=O)cc1)N1CCCC1` [Example 47, 2-[(3R)-1-cyclobutylpyrrolidin-3-yl]-6-[4-(pyrrolidin-1-ylcarbonyl)phenyl]-3,4-dihydroisoquinolin-1(2H)-one], the Ki was at most 10 nM.

`O=C(c1ccc2c(c1)CCN([C@@H]1CCN(C3CCC3)C1)C2=O)N1CCCC1` [Example 87, 2-[(3R)-1-cyclobutylpyrrolidin-3-yl]-6-(pyrrolidin-1-ylcarbonyl)-3,4-dihydroisoquinolin-1(2H)-one hydrochloride] gave a Ki of 25.1 to 50 nM.

In the case of `CC(C)N1CCC[C@@H](N2CCc3cc(-c4ccc(C(=O)N5CCCC5)cc4)ccc3C2=O)C1` [Example 72, 2-[(3R)-1-isopropylpiperidin-3-yl]-6-[4-(pyrrolidin-1-ylcarbonyl)phenyl]-3,4-dihydroisoquinolin-1(2H)-one], the Ki was above 100 nM.

The compound `CNC(=O)c1ccc(-c2ccc3c(c2)CCN([C@@H]2CCN(C4CCC4)C2)C3=O)cc1` [Example 44, 4-{2-[(3R)-1-cyclobutylpyrrolidin-3-yl]-1-oxo-1,2,3,4-tetrahydroisoquinolin-6-yl}-N-methylbenzamide] displayed a Ki of at most 10 nM.

On to `CCNC(=O)c1ccc(Oc2ccc3c(c2)CCN([C@@H]2CCN(C4CCCC4)C2)C3=O)cc1` [Example 38, 4-({2-[(3R)-1-cyclopentylpyrrolidin-3-yl]-1-oxo-1,2,3,4-tetrahydroisoquinolin-6-yl}oxy)-N-ethylbenzamide], for which the Ki fell in the range of 10.1 to 25 nM.

In turn, `O=C(c1ccc(-c2ccc3c(c2)CCN(C2CCN(C4CCC4)CC2)C3=O)cc1)N1CCCC1` [Example 65, 2-(1-cyclobutylpiperidin-4-yl)-6-[4-(pyrrolidin-1-ylcarbonyl)phenyl]-3,4-dihydroisoquinolin-1(2H)-one] displayed a Ki of at most 10 nM.

In the case of `O=C(NC1CCCC1)c1ccc(-c2ccc3c(c2)CCN([C@@H]2CCN(C4CCC4)C2)C3=O)c(F)c1` [Example 80, 4-{2-[(3R)-1-cyclobutylpyrrolidin-3-yl]-1-oxo-1,2,3,4-tetrahydroisoquinolin-6-yl}-N-cyclopentyl-3-fluorobenzamide], the Ki is at most 10 nM.

Turning to `NC(=O)c1ccc(Oc2ccc3c(c2)CCN(C2CCN(C4CCC4)CC2)C3=O)cc1` [Example 3, 4-{[2-(1-cyclobutylpiperidin-4-yl)-1-oxo-1,2,3,4-tetrahydroiso-quinolin-6-yl]oxy}benzamide Hydrochloride], the Ki lay within 10.1 to 25 nM.

Consider `O=C(c1ccc(-c2ccc3c(c2)CCN(C2CCN(C4CCCC4)CC2)C3=O)cc1)N1CCCC1` [Example 66, 2-(1-cyclopentylpiperidin-4-yl)-6-[4-(pyrrolidin-1-ylcarbonyl)phenyl]-3,4-dihydroisoquinolin-1(2H)-one], for which the Ki is at most 10 nM.

`NC(=O)c1ccc(COc2ccc3c(c2)CCN(C2CCN(C4CCC4)CC2)C3=O)cc1` [Example 15, 4-({[2-(1-cyclobutylpiperidin-4-yl)-1-oxo-1,2,3,4-tetrahydroiso-quinolin-6-yl]oxy}methyl)benzamide acid hydrochloride]: the Ki is at most 10 nM.

On to `CCNC(=O)c1ccc(Oc2ccc3c(c2)CCN(C2CCN(C4CCC4)CC2)C3=O)cc1` [Example 5, 4-{[2-(1-Cyclobutylpiperidin-4-yl)-1-oxo-1,2,3,4-tetrahydroisoquinolin-6-yl]oxy}-N-ethylbenzamide], for which the Ki was at most 10 nM.

Compound `O=C(c1ccc(-c2ccc3c(c2)CCN([C@@H]2CCN(C4CCC4)C2)C3=O)c(F)c1)N1CCCC1` [Example 79, 2-[(3R)-1-cyclobutylpyrrolidin-3-yl]-6-[2-fluoro-4-(pyrrolidin-1-ylcarbonyl)phenyl]-3,4-dihydroisoquinolin-1(2H)-one] returned a Ki of at most 10 nM.

Compound `O=C(c1ccc(-c2ccc3c(c2)CCN([C@@H]2CCN(C4CCCCC4)C2)C3=O)cc1)N1CCCC1` [Example 57, 2-[(3R)-1-cyclohexylpyrrolidin-3-yl]-6-[4-(pyrrolidin-1-ylcarbonyl)phenyl]-3,4-dihydroisoquinolin-1(2H)-one] came in with an inhibition constant Ki of at most 10 nM.

The compound `O=C(c1ccc(-c2ccc3c(c2)CCN([C@@H]2CCN(CC4CCCC4)C2)C3=O)cc1)N1CCCC1` [Example 59, 2-[(3R)-1-(cyclopentylmethyl)pyrrolidin-3-yl]-6-[4-(pyrrolidin-1-ylcarbonyl)phenyl]-3,4-dihydroisoquinolin-1(2H)-one] came in with a Ki of 10.1 to 25 nM.

In turn, `CC(C)NC(=O)c1ccc(Oc2ccc3c(c2)CCN(C2CCN(C4CCC4)CC2)C3=O)cc1` [Example 6, 4-{[2-(1-Cyclobutylpiperidin-4-yl)-1-oxo-1,2,3,4-tetrahydroisoquinolin-6-yl]oxy}-N-isopropylbenzamide] came in with a Ki of 10.1 to 25 nM.

As to `CN1CCC(N2Cc3cc(-c4ccc(C#N)cc4)ccc3C2=O)CC1` [Example 23, hydrochloride], the Ki is above 100 nM.

The compound `CCNC(=O)c1ccc(-c2ccc3c(c2)CCN([C@@H]2CCN(C4CCCC4)C2)C3=O)cc1` [Example 42, 4-{2-[(3R)-1-cyclopentylpyrrolidin-3-yl]-1-oxo-1,2,3,4-tetrahydroisoquinolin-6-yl}-N-ethylbenzamide] had a Ki of at most 10 nM.

`CNC(=O)c1ccc(-c2ccc3c(c2)CCN(C2CCN(C4CCC4)C2)C3=O)cc1` (stereo in doubt) [Example 90, (R)-4-(2-(1-cyclobutylpyrrolidin-3-yl)-1-oxo-1,2,3,4-tetrahydro-isoquinolin-6-yl)-N-methylbenzamide hydrochloride] had a Ki of at most 10 nM.

In turn, `CNC(=O)c1ccc(-c2ccc3c(c2)CCN([C@@H]2CCN(C(C)C)C2)C3=O)cc1` [Example 82] had a Ki of at most 10 nM.

Take `CNC(=O)c1ccc(-c2ccc3c(c2)CN([C@@H]2CCN(C4CCC4)C2)C3=O)cc1` [Example 91, (R)-4-(2-(1-cyclobutylpyrrolidin-3-yl)-1-oxoisoindolin-5-yl)-N-methylbenzamide hydrochloride]: the Ki was 10.1 to 25 nM.

In turn, `O=C(c1ccc(-c2ccc3c(c2)CCN([C@@H]2CCN(C4CCC4)C2)C3=O)cc1F)N1CCCC1` [Example 48, 2-[(3R)-1-cyclobutylpyrrolidin-3-yl]-6-[3-fluoro-4-(pyrrolidin-1-ylcarbonyl)phenyl]-3,4-dihydroisoquinolin-1(2H)-one] showed a Ki of at most 10 nM.

With `CCCN1CCC(N2Cc3cc(-c4ccc(C#N)cc4)ccc3C2=O)CC1` [Example 25, 4-[1-Oxo-2-(1-propylpiperidin-4-yl)-2,3-dihydro-1H-isoindol-5-yl]benzonitrile], the Ki is above 100 nM.

Compound `O=C(c1ccc(-c2ccc3c(c2)CCN([C@@H]2CCN(Cc4ccco4)C2)C3=O)cc1)N1CCCC1` [Example 61, 2-[(3R)-1-(furan-2-ylmethyl)pyrrolidin-3-yl]-6-[4-(pyrrolidin-1-ylcarbonyl)phenyl]-3,4-dihydroisoquinolin-1(2H)-one] returned a Ki above 100 nM.

For `CNC(=O)c1ccc(-c2ccc3c(c2)CCN([C@@H]2CCN(C4CCC4)C2)C3=O)c(F)c1` [Example 75, 4-{2-[(3R)-1-cyclobutylpyrrolidin-3-yl]-1-oxo-1,2,3,4-tetrahydroisoquinolin-6-yl}-3-fluoro-N-methylbenzamide], the Ki was at most 10 nM.
